Test results published in patent US20240417411A1, “COMPOUNDS AND METHODS FOR TREATMENT OF VIRAL INFECTIONS” (priority 2023, published 2024).

Key:
in vitro [1] = assay type: cell-based; conditions: human
Description: Example C: CC50 MT4 Cytotoxicity of the compounds was determined in uninfected cells using the cell viability reagent in a similar fashion as described before for other cell types ([…] et al., Antimicrob Agents Chemother. 2008,52(2):655-65). […] Cells were cultured for 4-5 days at 37° C. Following the incubation, the cells were allowed to equilibrate to 25° C., and cell viability was determined by adding Cell-Titer Glo viability reagent. The mixture was incubated for 10 min, and the luminescence signal was quantified using an Envision plate reader. Untreated cell and cells treated at 2 μM puromycin (Sigma, St. Louis, MO) serve as 100% and 0% cell viability control, respectively. The percent of cell viability was calculated for each tested compound concentration relative to the 0% and 100% controls and the CC50 value was determined by non-linear regression as a compound concentration reducing the cell viability by 50%.

SARS-CoV2-NLuc = experiment: microbe, parasite or virus in culture; assay type: cell-based, SARS Coronavirus 2; conditions: Severe acute respiratory syndrome coronavirus 2, 48 h, read-out: SARS-CoV2 EC50 (nM)
in vitro [2] = conditions: human, plasma
in vitro [3] = assay type: in vitro ADME; conditions: human, s9, pH 7.4
Description: Example D: GI S9 Stability […] The S9 metabolic reactions were initiated by the addition of the substrates to the S9 reaction mixture to a final concentration of 2 μM. […] Aliquots ([…]) of the diluted supernatant were analyzed on a Thermo Q-Exactive mass spectrometer as described below. Example F: Liquid Chromatography/Mass Spectroscopy Methods for S9 and Plasma Stability Quantification of test compounds, Reference Compound A (S9 stability assay nucleoside metabolite), and controls was performed by analyte/internal standard peak area ratio (PAR) values measured on a Thermo Q-Exactive mass spectrometer coupled to a Dionex UltiMate 3000 HPLC with a Leap Technologies HTC PAL autosampler. […] Mobile phase A consisted of 0.1% (v/v) formic acid in water. Mobile phase B consisted of 0.1% (v/v) formic acid in acetonitrile. Elution of analytes was achieved by a series of linear gradients of acetonitrile in water containing 0.10% (v/v) formic acid. The mass spectrometer was calibrated on a weekly basis and mass tolerance of 5 ppm was used.

RSV-Luc5 = experiment: microbe, parasite or virus in culture; assay type: cell-based; conditions: human respiratory syncytial virus, NHBE, 72 h, read-out: RSV NHBE EC50 (nM)
[4] = system: Caco-2 cells (clone C2BBe1); conditions: human, Caco-2

Row | SMILES | CC50 (in vitro [1]) | EC50 (SARS-CoV2-NLuc) | half-life at 2 μM (in vitro [2]) | half-life at 2 μM (in vitro [3]) | EC50 (RSV-Luc5) | Caco2 A to B [4] | Caco2 B to A [4]
1 | CC1(C)CC(=O)O[C@H]2[C@@H](OC(=O)C1)[C@](C#N)(c1ccc3c(N)ncnn13)O[C@@H]2CO [Compound C11, (7aR,8R,10R,10aR)-8-(4-aminopyrrolo[2,1-f][1,2,4]triazin-7-yl)-10-(hydroxymethyl)-4,4-dimethyl-2,6-dioxooctahydro-2H-furo[3,4-b][1,4]dioxonine-8-carbonitrile] | > 50 µM | > 50000 nM | 414 min | 24.3 min | > 50000 nM | – | –
2 | COC(=O)OC[C@H]1O[C@@](C#N)(c2ccc3c(N)ncnn23)[C@@H]2OC(=O)CC(C)(C)CC(=O)O[C@@H]21 [Compound C15, ((7aR,8R,10R,10aR)-10-(4-aminopyrrolo[2,1-f][1,2,4]triazin-7-yl)-10-cyano-4,4-dimethyl-2,6-dioxooctahydro-2H-furo[3,4-b][1,4]dioxonin-8-yl)methyl methyl carbonate] | > 50 µM | > 50000 nM | 16.1 min | 6.22 min | > 50000 nM | – | –
3 | CC(C)(OC(=O)OC[C@H]1O[C@@](C#N)(c2ccc3c(N)ncnn23)[C@@H]2OC(=O)CCCC(=O)O[C@@H]21)c1ccncc1 [Compound C17, ((7aR,8R,10R,10aR)-10-(4-aminopyrrolo[2,1-f][1,2,4]triazin-7-yl)-10-cyano-2,6-dioxooctahydro-2H-furo[3,4-b][1,4]dioxonin-8-yl)methyl (2-(pyridin-4-yl)propan-2-yl) carbonate] | > 50 µM | 29900 nM | 31.1 min | – | > 50000 nM | 2.97 | 15.86
4 | CC(C)COC(=O)OC[C@H]1O[C@@](C#N)(c2ccc3c(N)ncnn23)[C@@H]2OC(=O)CCCC(=O)O[C@@H]21 [Compound C18, ((7aR,8R,10R,10aR)-10-(4-aminopyrrolo[2,1-f][1,2,4]triazin-7-yl)-10-cyano-2,6-dioxooctahydro-2H-furo[3,4-b][1,4]dioxonin-8-yl)methyl isobutyl carbonate] | > 50 µM | 1780 nM | 7.57 min | 0.724 min | 8490 nM | – | –
5 | N#C[C@@]1(c2ccc3c(N)ncnn23)O[C@H](COC(=O)OCCN2CCOCC2)[C@H]2OC(=O)CCCC(=O)O[C@H]21 [Compound C19, ((7aR,8R,10R,10aR)-10-(4-aminopyrrolo[2,1-f][1,2,4]triazin-7-yl)-10-cyano-2,6-dioxooctahydro-2H-furo[3,4-b][1,4]dioxonin-8-yl)methyl (2-morpholinoethyl) carbonate] | > 50 µM | 4310 nM | 90.3 min | 0.552 min | 8620 nM | – | –
6 | CC(C)(OC(=O)OC[C@H]1O[C@@](C#N)(c2ccc3c(N)ncnn23)[C@@H]2OC(=O)CCCC(=O)O[C@@H]21)C(F)F [Compound C25, ((7aR,8R,10R,10aR)-10-(4-aminopyrrolo[2,1-f][1,2,4]triazin-7-yl)-10-cyano-2,6-dioxooctahydro-2H-furo[3,4-b][1,4]dioxonin-8-yl)methyl (1,1-difluoro-2-methylpropan-2-yl) carbonate] | > 50 µM | 34300 nM | 11.9 min | 0.559 min | 6460 nM | – | –
7 | CCOC(=O)C(C)(C)OC(=O)OC[C@H]1O[C@@](C#N)(c2ccc3c(N)ncnn23)[C@@H]2OC(=O)CCCC(=O)O[C@@H]21 [Compound C26, ethyl 2-(((((7aR,8R,10R,10aR)-10-(4-aminopyrrolo[2,1-f][1,2,4]triazin-7-yl)-10-cyano-2,6-dioxooctahydro-2H-furo[3,4-b][1,4]dioxonin-8-yl)methoxy)carbonyl)oxy)-2-methylpropanoate] | > 50 µM | 39900 nM | 18.3 min | 0.618 min | > 50000 nM | – | –
8 | CC(C)(C)COC(=O)OC[C@H]1O[C@@](C#N)(c2ccc3c(N)ncnn23)[C@@H]2OC(=O)CCCC(=O)O[C@@H]21 [Compound C29, ((7aR,8R,10R,10aR)-10-(4-aminopyrrolo[2,1-f][1,2,4]triazin-7-yl)-10-cyano-2,6-dioxooctahydro-2H-furo[3,4-b][1,4]dioxonin-8-yl)methyl neopentyl carbonate] | > 50 µM | 2220 nM | 12.1 min | 0.587 min | 4660 nM | – | –
9 | CCOC(=O)[C@@H]1[C@H](OC(=O)OC[C@H]2O[C@@](C#N)(c3ccc4c(N)ncnn34)[C@@H]3OC(=O)CCCC(=O)O[C@@H]32)CCN1C [Compound C32, ethyl (2S,3R)-3-(((((7aR,8R,10R,10aR)-10-(4-aminopyrrolo[2,1-f][1,2,4]triazin-7-yl)-10-cyano-2,6-dioxooctahydro-2H-furo[3,4-b][1,4]dioxonin-8-yl)methoxy)carbonyl)oxy)-1-methylpyrrolidine-2-carboxylate] | > 50 µM | 4970 nM | 30.9 min | 0.566 min | 7650 nM | – | –
10 | CC(C)COC(=O)OC[C@H]1O[C@@](C#N)(c2ccc3c(N)ncnn23)[C@@H]2OC(=O)CC(C)(C)CC(=O)O[C@@H]21 [Compound C35, ((7aR,8R,10R,10aR)-10-(4-aminopyrrolo[2,1-f][1,2,4]triazin-7-yl)-10-cyano-4,4-dimethyl-2,6-dioxooctahydro-2H-furo[3,4-b][1,4]dioxonin-8-yl)methyl isobutyl carbonate] | > 50 µM | > 50000 nM | 73.6 min | 0.609 min | > 50000 nM | – | –
11 | CC1(C)CC(=O)O[C@H]2[C@@H](OC(=O)C1)[C@](C#N)(c1ccc3c(N)ncnn13)O[C@@H]2COC(=O)OC1CCCC1 [Compound C37, ((7aR,8R,10R,10aR)-10-(4-aminopyrrolo[2,1-f][1,2,4]triazin-7-yl)-10-cyano-4,4-dimethyl-2,6-dioxooctahydro-2H-furo[3,4-b][1,4]dioxonin-8-yl)methyl cyclopentyl carbonate] | > 50 µM | > 50000 nM | 300 min | 5.15 min | > 50000 nM | – | –
12 | CC1(C)CC(=O)O[C@H]2[C@@H](OC(=O)C1)[C@](C#N)(c1ccc3c(N)ncnn13)O[C@@H]2COC(=O)OC(CF)CF [Compound C44, ((7aR,8R,10R,10aR)-10-(4-aminopyrrolo[2,1-f][1,2,4]triazin-7-yl)-10-cyano-4,4-dimethyl-2,6-dioxooctahydro-2H-furo[3,4-b][1,4]dioxonin-8-yl)methyl (1,3-difluoropropan-2-yl) carbonate] | > 50 µM | > 50000 nM | 133 min | 1.22 min | > 50000 nM | – | –
13 | CCOC(=O)[C@@H]1[C@H](OC(=O)OC[C@H]2O[C@@](C#N)(c3ccc4c(N)ncnn34)[C@@H]3OC(=O)CC(C)(C)CC(=O)O[C@@H]32)CCN1C [Compound C49, ethyl (2S,3R)-3-(((((7aR,8R,10R,10aR)-10-(4-aminopyrrolo[2,1-f][1,2,4]triazin-7-yl)-10-cyano-4,4-dimethyl-2,6-dioxooctahydro-2H-furo[3,4-b][1,4]dioxonin-8-yl)methoxy)carbonyl)oxy)-1-methylpyrrolidine-2-carboxylate] | > 50 µM | > 50000 nM | 42.5 min | 7.81 min | > 50000 nM | – | –
14 | CC(C)[C@H](NC(=O)OC(C)(C)C)C(=O)OC[C@H]1O[C@@](C#N)(c2ccc3c(N)ncnn23)[C@@H]2OC(=O)CCCC(=O)O[C@@H]21 [Compound C58, ((7aR,8R,10R,10aR)-10-(4-aminopyrrolo[2,1-f][1,2,4]triazin-7-yl)-10-cyano-2,6-dioxooctahydro-2H-furo[3,4-b][1,4]dioxonin-8-yl)methyl (tert-butoxycarbonyl)-L-valinate] | > 50 µM | 5120 nM | 26.4 min | 0.577 min | 2840 nM | – | –
15 | CC(C)[C@H](N)C(=O)OC[C@H]1O[C@@](C#N)(c2ccc3c(N)ncnn23)[C@@H]2OC(=O)CCCC(=O)O[C@@H]21 [Compound C59, ((7aR,8R,10R,10aR)-10-(4-aminopyrrolo[2,1-f][1,2,4]triazin-7-yl)-10-cyano-2,6-dioxooctahydro-2H-furo[3,4-b][1,4]dioxonin-8-yl)methyl L-valinate] | > 50 µM | 6830 nM | 18.5 min | 0.586 min | 5970 nM | – | –
